AC50 data for 21 compounds are collected here from patent US20250171437A1 (Agios Pharmaceuticals,Inc., priority 2022, published 2025).

This assay addresses T1, human PAH with the R408W mutation (A375 R408W cells) (Homo sapiens, UniProt P00439, R408W).
T1 construct: expressed in transfected cells
T1 sequence (P00439 1-452 R408W): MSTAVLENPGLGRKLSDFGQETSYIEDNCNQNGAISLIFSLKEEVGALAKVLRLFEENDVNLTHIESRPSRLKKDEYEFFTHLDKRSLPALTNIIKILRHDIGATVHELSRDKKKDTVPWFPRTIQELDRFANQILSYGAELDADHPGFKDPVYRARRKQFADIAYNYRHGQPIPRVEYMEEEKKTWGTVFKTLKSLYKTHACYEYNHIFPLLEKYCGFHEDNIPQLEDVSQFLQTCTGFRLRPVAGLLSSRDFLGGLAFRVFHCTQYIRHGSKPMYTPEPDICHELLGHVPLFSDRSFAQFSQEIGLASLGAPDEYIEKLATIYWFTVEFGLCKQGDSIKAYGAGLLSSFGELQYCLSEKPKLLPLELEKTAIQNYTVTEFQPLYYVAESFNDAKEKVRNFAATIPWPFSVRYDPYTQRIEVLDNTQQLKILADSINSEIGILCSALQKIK
The assay is described as follows: Cell Based Phenylalanine Flux Assay. The note with it: A375 R408W cells; 24 hrs with compound, then 20 μM sepiapterin and 800 μM 13C9,15N-Phenylalanine for 4 hours; 13C-Tyrosine by LC-MS; average where tested multiple times. The method in brief:
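Puromycin-selected A375 line, lentiviral hPAH R408W; cmpd 24 h, 37 °C, 5% CO2, 0.5% DMSO; then 20 μM sepiapterin + 800 μM 13C9,15N-Phe, 4 h; media extracted in 80% MeCN; 13C-Tyr by LC-MS; AC50 from 10-pt curves.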
As to `O=C(CC1CC1)N1CCc2[nH]cnc2[C@H]1c1nc2cc(F)ccc2o1` [Example 37, (S)-2-cyclopropyl-1-(4-(5-fluorobenzo[d]oxazol-2-yl)-6,7-dihydro-1H-imidazo[4,5-c]pyridin-5(4H)-yl)ethanone], the half-maximal activity concentration (AC50) (commonly the midpoint of the concentration-response curve, whichever way the signal moves) fell in the range of 1000 to 5000 nM. Regarding `O=C(CC1CC1)N1CCc2[nH]cnc2[C@@H]1c1nc2cc(F)ccc2o1` [Example 38, (R)-2-cyclopropyl-1-(4-(5-fluorobenzo[d]oxazol-2-yl)-6,7-dihydro-1H-imidazo[4,5-c]pyridin-5(4H)-yl)ethanone], the AC50 was 1000 to 5000 nM. Then `O=C(c1nnc(-c2ccccn2)o1)N1CCc2[nH]cnc2[C@H]1c1nc2cc(F)ccc2o1` [Example 39, (S)-(4-(5-fluorobenzo[d]oxazol-2-yl)-6,7-dihydro-1H-imidazo[4,5-c]pyridin-5(4H)-yl)(5-(pyridin-2-yl)-1,3,4-oxadiazol-2-yl)methanone], with 500 to 1000 nM; and `O=C(c1nnc(-c2ccccn2)o1)N1CCc2[nH]cnc2[C@@H]1c1nc2cc(F)ccc2o1` [Example 40, (R)-(4-(5-fluorobenzo[d]oxazol-2-yl)-6,7-dihydro-1H-imidazo[4,5-c]pyridin-5(4H)-yl)(5-(pyridin-2-yl)-1,3,4-oxadiazol-2-yl)methanone], with 1000 to 5000 nM. Then `O=C(c1ocnc1C1CC1)N1CCc2[nH]cnc2[C@H]1c1nc2cc(F)ccc2o1` [Example 41, (S)-(4-cyclopropyloxazol-5-yl)(4-(5-fluorobenzo[d]oxazol-2-yl)-6,7-dihydro-1H-imidazo[4,5-c]pyridin-5(4H)-yl)methanone], with not above 500 nM; and `O=C(c1ocnc1C1CC1)N1CCc2[nH]cnc2[C@@H]1c1nc2cc(F)ccc2o1` [Example 42, (R)-(4-cyclopropyloxazol-5-yl)(4-(5-fluorobenzo[d]oxazol-2-yl)-6,7-dihydro-1H-imidazo[4,5-c]pyridin-5(4H)-yl)methanone], with 1000 to 5000 nM. Take `O=C(c1oc(-c2ccccn2)nc1C1CC1)N1CCc2[nH]cnc2[C@H]1c1nc2cc(F)ccc2o1` [Example 43, (S)-(4-cyclopropyl-2-(pyridin-2-yl)oxazol-5-yl)(4-(5-fluorobenzo[d]oxazol-2-yl)-6,7-dihydro-1H-imidazo[4,5-c]pyridin-5(4H)-yl)methanone]: the half-maximal activity concentration (AC50) is not above 500 nM. As for `O=C(c1oc(-c2ccccn2)nc1C1CC1)N1CCc2[nH]cnc2[C@@H]1c1nc2cc(F)ccc2o1` [Example 44, (R)-(4-cyclopropyl-2-(pyridin-2-yl)oxazol-5-yl)(4-(5-fluorobenzo[d]oxazol-2-yl)-6,7-dihydro-1H-imidazo[4,5-c]pyridin-5(4H)-yl)methanone], the half-maximal activity concentration (AC50) lay within 1000 to 5000 nM. Take `CC(C)(O)c1nc(C(F)(F)F)c(C(=O)N2CCc3[nH]cnc3[C@H]2c2nc3cc(F)ccc3o2)o1` [Example 45, (S)-(4-(5-fluorobenzo[d]oxazol-2-yl)-6,7-dihydro-1H-imidazo[4,5-c]pyridin-5(4H)-yl)(2-(2-hydroxypropan-2-yl)-4-(trifluoromethyl)oxazol-5-yl)methanone]: the AC50 was not above 500 nM.

For `CC(C)(O)c1nc(C(F)(F)F)c(C(=O)N2CCc3[nH]cnc3[C@@H]2c2nc3cc(F)ccc3o2)o1` [Example 46, (R)-(4-(5-fluorobenzo[d]oxazol-2-yl)-6,7-dihydro-1H-imidazo[4,5-c]pyridin-5(4H)-yl)(2-(2-hydroxypropan-2-yl)-4-(trifluoromethyl)oxazol-5-yl)methanone], the AC50 was not above 500 nM.

As for `CN(C)CCc1ccc2c(C(=O)N3CCc4[nH]cnc4[C@H]3c3nc4cc(F)ccc4o3)cnn2c1` [Example 47, (S)-(6-(2-(dimethylamino)ethyl)pyrazolo[1,5-a]pyridin-3-yl)(4-(5-fluorobenzo[d]oxazol-2-yl)-6,7-dihydro-1H-imidazo[4,5-c]pyridin-5(4H)-yl)methanone], the concentration at half-maximal activity (AC50) is 1000 to 5000 nM. `CN(C)CCc1ccc2c(C(=O)N3CCc4[nH]cnc4[C@@H]3c3nc4cc(F)ccc4o3)cnn2c1` [Example 48, (R)-(6-(2-(dimethylamino)ethyl)pyrazolo[1,5-a]pyridin-3-yl)(4-(5-fluorobenzo[d]oxazol-2-yl)-6,7-dihydro-1H-imidazo[4,5-c]pyridin-5(4H)-yl)methanone]: the AC50 was not below 5000 nM. In the case of `O=C(c1oc(-c2ccccn2)nc1C(F)(F)F)N1CCc2[nH]cnc2[C@H]1c1nc2cc(F)ccc2o1` [Example 49, (S)-(4-(5-fluorobenzo[d]oxazol-2-yl)-6,7-dihydro-1H-imidazo[4,5-c]pyridin-5(4H)-yl)(2-(pyridin-2-yl)-4-(trifluoromethyl)oxazol-5-yl)methanone], the AC50 is not above 500 nM. Turning to `O=C(c1oc(-c2ccccn2)nc1C(F)(F)F)N1CCc2[nH]cnc2[C@@H]1c1nc2cc(F)ccc2o1` [Example 50, (R)-(4-(5-fluorobenzo[d]oxazol-2-yl)-6,7-dihydro-1H-imidazo[4,5-c]pyridin-5(4H)-yl)(2-(pyridin-2-yl)-4-(trifluoromethyl)oxazol-5-yl)methanone], the AC50 was not above 500 nM. For the compound `O=C(c1ocnc1C(F)F)N1CCc2[nH]cnc2[C@H]1c1nc2cc(F)ccc2o1` [Example 51, (S)-(4-(difluoromethyl)oxazol-5-yl)(4-(5-fluorobenzo[d]oxazol-2-yl)-6,7-dihydro-1H-imidazo[4,5-c]pyridin-5(4H)-yl)methanone], the half-maximal activity concentration (AC50) is not above 500 nM.

`O=C(c1ocnc1C(F)F)N1CCc2[nH]cnc2[C@@H]1c1nc2cc(F)ccc2o1` [Example 52, (R)-(4-(difluoromethyl)oxazol-5-yl)(4-(5-fluorobenzo[d]oxazol-2-yl)-6,7-dihydro-1H-imidazo[4,5-c]pyridin-5(4H)-yl)methanone]: the AC50 is 500 to 1000 nM. For `O=C(c1oc(C2CC2)nc1C(F)F)N1CCc2[nH]cnc2[C@H]1c1nc2cc(F)ccc2o1` [Example 53, (S)-(2-cyclopropyl-4-(difluoromethyl)oxazol-5-yl)(4-(5-fluorobenzo[d]oxazol-2-yl)-6,7-dihydro-1H-imidazo[4,5-c]pyridin-5(4H)-yl)methanone], the concentration at half-maximal activity (AC50) was not above 500 nM.

`O=C(c1oc(C2CC2)nc1C(F)F)N1CCc2[nH]cnc2[C@@H]1c1nc2cc(F)ccc2o1` [Example 54, (R)-(2-cyclopropyl-4-(difluoromethyl)oxazol-5-yl)(4-(5-fluorobenzo[d]oxazol-2-yl)-6,7-dihydro-1H-imidazo[4,5-c]pyridin-5(4H)-yl)methanone]: the AC50 lay within 500 to 1000 nM. Turning to `O=C(CC1(O)CCC1)N1CCc2[nH]cnc2[C@H]1c1nc2cc(F)ccc2o1` [Example 55, (S)-1-(4-(5-fluorobenzo[d]oxazol-2-yl)-6,7-dihydro-1H-imidazo[4,5-c]pyridin-5(4H)-yl)-2-(1-hydroxycyclobutyl)ethanone], the AC50 was in the range of 500 to 1000 nM. With `O=C(CC1(O)CCC1)N1CCc2[nH]cnc2[C@@H]1c1nc2cc(F)ccc2o1` [Example 56, (R)-1-(4-(5-fluorobenzo[d]oxazol-2-yl)-6,7-dihydro-1H-imidazo[4,5-c]pyridin-5(4H)-yl)-2-(1-hydroxycyclobutyl)ethanone], the AC50 lay in the range of 1000 to 5000 nM. `Cc1ccc2nc([C@@H]3c4nc[nH]c4CCN3C(=O)c3ocnc3C(F)(F)F)oc2c1` [Example 57, (S)-(4-(6-methylbenzo[d]oxazol-2-yl)-6,7-dihydro-1H-imidazo[4,5-c]pyridin-5(4H)-yl)(4-(trifluoromethyl)oxazol-5-yl)methanone]: the AC50 is not above 500 nM.
